These results are taken from ChEMBL document CHEMBL3132781, “Biologically active binaphthol-scaffolded imidazolium salts” (Medchemcomm, 2014).

In one data set the test system is Bacillus thuringiensis. Briefly: Antibacterial activity against Bacillus thuringiensis HD73 assessed as complete inhibition of bacterial growth measured upto 24 hrs by broth dilution assay. To be noted: HD73, 24 h. Type of data set: functional.
Data set [1] concerns Escherichia coli. Description: Antibacterial activity against Escherichia coli DH5[alpha] assessed as complete inhibition of bacterial growth measured upto 24 hrs by broth dilution assay. It counts as functional.
For another data set, the system named is Listeria seeligeri. Description: Antibacterial activity against Listeria seeligeri ATCC 35967 assessed as complete inhibition of bacterial growth measured upto 24 hrs by broth dilution assay. To be noted: ATCC 35967, 24 h. It counts as functional. For orientation: Dilution methods test growth across graded concentrations, often in twofold steps.
The subject of a further data set is Alcaligenes faecalis. Description: Antibacterial activity against Alcaligenes faecalis ATCC 8750 assessed as complete inhibition of bacterial growth measured upto 24 hrs by broth dilution assay. To be noted: ATCC 8750, 24 h. It counts as functional.
A short description of data set [2]: Induction of chloride efflux in egg yolk phosphatidylcholine large unilamellar vesicles assessed as increase of lucigenin's fluorescence relative to EYPC. It counts as physicochemical.
Data set [3] deals with Escherichia coli. Briefly: Antibacterial activity against Escherichia coli DH5[alpha] at 50 uM measured upto 24 hrs by broth dilution assay. It counts as functional, organism-based.
For another data set, the system named is HEK-293T. Briefly: Cytotoxicity against human HEK293T cells after 24 hrs by MTT assay. It counts as cell-based. A general note: Tetrazolium dyes change colour on reduction, which living cells bring about.
Data set [4] can be described thus: Hemolysis in human erythrocytes upto 100 uM after 1 hr. Particulars: read-out: Activity. Type of data set: ADME, cell-based, Erythrocyte.
In data set [5] the test system is Escherichia coli. Description: Antibacterial activity against Escherichia coli DH5[alpha] at 10 uM measured upto 24 hrs by broth dilution assay. Type of data set: functional, organism-based.
The test system of data set [6] is Escherichia coli. Briefly: Antibacterial activity against Escherichia coli SK037 with Tn10 insertion inactivated TolC measured at 5 to 10 fold lower MIC within 2 hrs by broth dilution assay. It counts as functional, organism-based.
Data set [7] in a line: Induction of chloride efflux in egg yolk phosphatidylcholine large unilamellar vesicles assessed as increase of lucigenin's fluorescence at 6.25 %mol relative to EYPC. It counts as physicochemical.
A short description of data set [8]: Hemolysis in human erythrocytes at 3 to 4 uM after 24 hrs. It counts as ADME, cell-based, Erythrocyte. To be noted: read-out: Activity.
In data set [9] the test system is Escherichia coli. Description: Antibacterial activity against Escherichia coli SK037 with Tn10 insertion inactivated TolC at 10 uM measured upto 24 hrs by broth dilution assay. It counts as functional, organism-based.
Data set [10] concerns Escherichia coli. Briefly: Antibacterial activity against Escherichia coli SK037 with Tn10 insertion inactivated TolC at 50 uM measured upto 24 hrs by broth dilution assay. Type of data set: functional, organism-based.

Active and inactive are the calls of the source. The rule behind the calls is not given here.

As usually defined, the MIC is the lowest concentration that inhibits growth of the organism. Take `C[n+]1ccn(Cc2cc3ccccc3c(-c3c(O)c(Cn4cc[n+](C)c4)cc4ccccc34)c2O)c1.O=S(=O)([N-]S(=O)(=O)C(F)(F)F)C(F)(F)F.O=S(=O)([N-]S(=O)(=O)C(F)(F)F)C(F)(F)F`: the minimum inhibitory concentration (MIC) in the data set with Bacillus thuringiensis, in the data set on Escherichia coli [1], in the data set on Listeria seeligeri and in the data set on Alcaligenes faecalis was over 100 µM throughout. In addition, the EC50 result in [2] is reported as “Not Active”.
Usually IC50 stands for the concentration that inhibits the measured activity by half. A high value points to weaker potency. As for `CCCC[n+]1ccn(Cc2cc3ccccc3c(-c3c(O)c(Cn4cc[n+](CCCC)c4)cc4ccccc34)c2O)c1.O=S(=O)([N-]S(=O)(=O)C(F)(F)F)C(F)(F)F.O=S(=O)([N-]S(=O)(=O)C(F)(F)F)C(F)(F)F`, the MIC was over 100 µM in the data set on Bacillus thuringiensis, over 100 µM in the data set on Escherichia coli [1], 30 µM with Listeria seeligeri and over 100 µM in the data set with Alcaligenes faecalis. The outcome in the data set on Escherichia coli [3] and in the data set with Escherichia coli [5] was inactive. Besides, the half-maximal inhibitory concentration (IC50) in the data set with HEK-293T is 23.8 µM. Further, the hemolysis at 1 h in [4] was under 10%. Also, the EC50 result in data set [2] is given as “Not Active”.
Take `CCCCCCCCCCCC[n+]1ccn(Cc2cc3ccccc3c(-c3c(O)c(Cn4cc[n+](CCCCCCCCCCCC)c4)cc4ccccc34)c2O)c1.O=S(=O)([N-]S(=O)(=O)C(F)(F)F)C(F)(F)F.O=S(=O)([N-]S(=O)(=O)C(F)(F)F)C(F)(F)F`: the MIC in the data set with Bacillus thuringiensis was 100 µM; with Escherichia coli [1] it was over 100 µM; in the data set with Listeria seeligeri, 25 µM; with Alcaligenes faecalis it was over 100 µM. This molecule registered a half-maximal inhibitory concentration (IC50) in the data set with HEK-293T of 9.2 µM. Moreover, the hemolysis at 1 h in [4] is under 10%. Moreover, the EC50 in data set [2] is recorded as 9.3 %molar.
In the case of `CCCCCCCC[n+]1ccn(Cc2cc3ccccc3c(-c3c(O)c(Cn4cc[n+](CCCCCCCC)c4)cc4ccccc34)c2O)c1.O=S(=O)([N-]S(=O)(=O)C(F)(F)F)C(F)(F)F.O=S(=O)([N-]S(=O)(=O)C(F)(F)F)C(F)(F)F`, the MIC in the data set on Bacillus thuringiensis is 4 µM; in the data set on Escherichia coli [1] it was over 100 µM; with Listeria seeligeri it was 3 µM; in the data set on Alcaligenes faecalis it was over 100 µM. The result in the data set with Escherichia coli [6], in the data set on Escherichia coli [9] and in the data set on Escherichia coli [10] was Active. The result in the data set on Escherichia coli [3] and with Escherichia coli [5] was inactive. The molecule further yielded an IC50 with HEK-293T of 11.7 µM. Moreover, the Activity in data set [7] is recorded as 68%. Also, the hemolysis at 24 h, up to 4 µM in [8] is under 15%. For the same molecule, in data set [4], the hemolysis at 1 h is under 10%. Also, the EC50 in data set [2] was 4.62 %molar.
As for `CCCCCCCCCCCCCCCC[n+]1ccn(Cc2cc3ccccc3c(-c3c(O)c(Cn4cc[n+](CCCCCCCCCCCCCCCC)c4)cc4ccccc34)c2O)c1.O=S(=O)([N-]S(=O)(=O)C(F)(F)F)C(F)(F)F.O=S(=O)([N-]S(=O)(=O)C(F)(F)F)C(F)(F)F`, the MIC in the data set on Bacillus thuringiensis, in the data set with Escherichia coli [1], in the data set on Listeria seeligeri and with Alcaligenes faecalis was over 100 µM throughout. Besides, the EC50 in data set [2] amounted to 18.1 %molar.
